{
  "source": "paper PMC10693528",
  "about": "“A high-throughput metabolomics in vitro platform for the characterization of hepatotoxicity” (Cell Biology and Toxicology, 2023)",
  "key": {"HepG2 cells [1]": {"tested_on": "HepG2 cells", "test": "Range finder cell viability (CellTiter-Glo, ATP) dose response", "assay_type": "cell-based, human", "settings": "estimated from ATP dose response curve, 48 h, rounded; for EC50: Homo sapiens, HepG2", "procedure": "(§1) HepG2 cells (ECACC, UK, maximum passage number 9) were maintained and grown on Dulbecco’s MEM media supplemented with 1% v/v of penicillin/streptomycin, L-glutamine (200 mM, 1% v/v), non-essential amino acids (100x, 1% v/v), and 10% FBS (PAN-Biotech, Aidenbach, Germany) in 75 cm^2 culture flasks (TPP, Switzerland). For cell passaging (~ 80% confluency) media was removed and cells were washed twice with pre-warmed calcium and magnesium free Dulbecco’s PBS (PAN-Biotech, Aidenbach, Germany). Trypsin was used for cell detachment. Then, 20 mL culture medium was added, and single-cell suspensions were obtained by passing the suspension through a Combitip (Eppendorf, Germany). A fraction of the cell suspension was then transferred to a new culture vessel. For experiments, 15,000 cells per well (passage 5-9) were seeded in 96-well flat-bottom plates (TPP, Switzerland) and incubated for 24 h for cell attachment (37 °C and 5% CO^2). Afterwards, culture media were exchanged, test substances applied, and plates incubated for 48 h (37 °C and 5% CO^2).\nIn order to define appropriate dose levels, range finder experiments were performed prior to metabolome experiments. Substances were administered to HepG2 cells in increasing concentrations and incubated for 48 h (6 replicates per concentration). Viability and cytotoxicity tests were performed as described previously. Luminescence values resulting from CellTiter-Glo® assays were used to build dose response curves. Curve fitting and effective concentrations (ECs) values were calculated in R using three-parameter Weibull model (W1.3). To obtain a full metabolome-based dose-response effect, five concentrations (EC1, EC5, EC15, EC50, EC85) were selected for metabolome experiments (Table 2). […] Calculated ECs values were rounded to the nearest integer number for dose selection."}, "[2]": {"test": "Cell viability (ATP, CellTiter-Glo) in parallel with metabolomics experiments", "settings": "human, Percentage of viability (ATP) compared to the vehicle control, n = 6", "procedure": "as §1\nFor each substance, one 96-well plate was set up with 6 replicates per concentration, 12 replicates for vehicle controls (yielding a final concentration of 0.5% DMSO in the well), 6 replicates for positive controls (Bezafibrate 1000 μM), and 6 replicates for blank controls (media without cells). To minimize potential evaporation, the outer rows and columns of the plate were omitted and filled with PBS instead. Reference samples prepared from lyophilized HepG2 cells were measured in parallel throughout the entire analytical process (technical replicates). […] Lyophilized HepG2 cells reference samples were used to account for variability between plates and in concentration series for linearity checks. After 48 h, the assays were stopped by washing the wells once with 100 μL 0.9% NaCl followed by snap freezing the plates on liquid nitrogen for 5 s. Plates were placed immediately on dry ice and 50 μL ice-cooled isopropanol 80% (v/v) were added to quench metabolism and precipitate proteins. Plates were stored at − 80 °C until LC/ MS analysis."}, "HepG2 cells [3]": {"tested_on": "HepG2 cells", "test": "Cytotoxicity (CellTox Green) in parallel with metabolomics experiments", "settings": "intermediate concentration (C3; C2 for aroclor), 48 h", "quoted_text": "Commercially available cytotoxicity (CellTox™ Green) and ATP content based (CellTiter-Glo®) assays (Promega GmbH, Walldorf, Germany) were multiplexed in a single 96-well plate following the manufacturer’s instructions. For positive controls, lysis solution 25X was added in wells containing vehicle control treated cells (0.5% DMSO). Then, 10X CellTox Green reagent was added in all wells, plates were shaken for 1 min, and incubated in the dark for 15 min at room temperature. […] Afterwards, wells were washed with PBS, 100 μL of Dulbecco’s MEM media were added to each well and subsequently 100 μL of 1X CellTiter-Glo were added. Plates were shaken for 2 min and incubated in the dark for 8 min at room temperature. Luminescence was measured in the GloMax®-Multi Detection System (Promega) and was normalized to the values of the vehicle control. Cytotoxicity and ATP cell viability analysis were carried out for range finder pre-tests and in parallel with metabolomics experiments in plates handled and treated exactly as the ones used for metabolite profiling."}},
  "note": "Marks after values point to notes of the source that are not given here.",
  "data": [
    {"molecule": "O=C(O)c1cc(Oc2ccc(C(F)(F)F)cc2Cl)ccc1[N+](=O)[O-]", "note": "[Acifluorfen]", "values": [
      {"measurement": "EC50", "setting": "HepG2 cells [1]", "value": 500, "unit": "µM"},
      {"measurement": "EC1", "setting": "HepG2 cells [1]", "value": 50, "unit": "µM"},
      {"measurement": "EC5", "setting": "HepG2 cells [1]", "value": 100, "unit": "µM"},
      {"measurement": "EC15", "setting": "HepG2 cells [1]", "value": 200, "unit": "µM"},
      {"measurement": "EC85", "setting": "HepG2 cells [1]", "value": 800, "unit": "µM"},
      {"measurement": "viability at 48 h", "setting": "[2]; HepG2 cells, C1, C1, 48 h", "value": "105 ± 4.2", "unit": "%"},
      {"measurement": "viability at 48 h", "setting": "[2]; HepG2 cells, C2, C2, 48 h", "value": "105 ± 4.8", "unit": "%"},
      {"measurement": "viability at 48 h", "setting": "[2]; HepG2 cells, C3, C3, 48 h", "value": "99.9 ± 1.3", "unit": "%"},
      {"measurement": "viability at 48 h", "setting": "[2]; HepG2 cells, C4, C4, 48 h", "value": "58.4 ± 1.5", "unit": "%"},
      {"measurement": "viability at 48 h", "setting": "[2]; HepG2 cells, C5, C5, 48 h", "value": "27.8 ± 1.3", "unit": "%"},
      {"measurement": "cytotoxicity (CellTox Green)", "setting": "HepG2 cells [3]", "value": "low cytotoxicity"}
    ]},
    {"molecule": "CC(=O)N1CCN(c2ccc(OCC3COC(Cn4ccnc4)(c4ccc(Cl)cc4Cl)O3)cc2)CC1", "note": "(stereo not drawn) [Ketoconazole]", "values": [
      {"measurement": "EC50", "setting": "HepG2 cells [1]", "value": 10, "unit": "µM"},
      {"measurement": "EC1", "setting": "HepG2 cells [1]", "value": "5^b μM"},
      {"measurement": "EC5", "setting": "HepG2 cells [1]", "value": 0.2, "unit": "µM"},
      {"measurement": "EC15", "setting": "HepG2 cells [1]", "value": 1, "unit": "µM"},
      {"measurement": "EC85", "setting": "HepG2 cells [1]", "value": 50, "unit": "µM"},
      {"measurement": "viability at 48 h", "setting": "[2]; HepG2 cells, C1, C1, 48 h", "value": "102 ± 3.1", "unit": "%"},
      {"measurement": "viability at 48 h", "setting": "[2]; HepG2 cells, C2, C2, 48 h", "value": "102 ± 0.9", "unit": "%"},
      {"measurement": "viability at 48 h", "setting": "[2]; HepG2 cells, C3, C3, 48 h", "value": "91.2 ± 1.5", "unit": "%"},
      {"measurement": "viability at 48 h", "setting": "[2]; HepG2 cells, C4, C4, 48 h", "value": "64.7 ± 1.5", "unit": "%"},
      {"measurement": "viability at 48 h", "setting": "[2]; HepG2 cells, C5, C5, 48 h", "value": "28.2 ± 1.9", "unit": "%"}
    ]},
    {"molecule": "CCC(CC)Nc1c([N+](=O)[O-])cc(C)c(C)c1[N+](=O)[O-]", "note": "[Pendimethalin]", "values": [
      {"measurement": "EC50", "setting": "HepG2 cells [1]", "value": 94, "unit": "µM"},
      {"measurement": "EC1", "setting": "HepG2 cells [1]", "value": 24, "unit": "µM"},
      {"measurement": "EC5", "setting": "HepG2 cells [1]", "value": 39, "unit": "µM"},
      {"measurement": "EC15", "setting": "HepG2 cells [1]", "value": 56, "unit": "µM"},
      {"measurement": "EC85", "setting": "HepG2 cells [1]", "value": 157, "unit": "µM"},
      {"measurement": "viability at 48 h", "setting": "[2]; C1, C1, 48 h", "value": "98.3 ± 3.9", "unit": "%"},
      {"measurement": "viability at 48 h", "setting": "[2]; C2, C2, 48 h", "value": "100 ± 2.9", "unit": "%"},
      {"measurement": "viability at 48 h", "setting": "[2]; C3, C3, 48 h", "value": "82.4 ± 4.9", "unit": "%"},
      {"measurement": "viability at 48 h", "setting": "[2]; C4, C4, 48 h", "value": "36.1 ± 3.2", "unit": "%"},
      {"measurement": "viability at 48 h", "setting": "[2]; C5, C5, 48 h", "value": "18.5 ± 3.2", "unit": "%"},
      {"measurement": "cytotoxicity (CellTox Green)", "setting": "HepG2 cells [3]", "value": "low cytotoxicity"}
    ]},
    {"molecule": "Cc1cccc(Nc2cc(Cl)nc(SCC(=O)O)n2)c1C", "note": "[Wy-14643]", "values": [
      {"measurement": "EC50", "setting": "HepG2 cells [1]", "value": 500, "unit": "µM"},
      {"measurement": "EC1", "setting": "HepG2 cells [1]", "value": 25, "unit": "µM"},
      {"measurement": "EC5", "setting": "HepG2 cells [1]", "value": 50, "unit": "µM"},
      {"measurement": "EC15", "setting": "HepG2 cells [1]", "value": 150, "unit": "µM"},
      {"measurement": "EC85", "setting": "HepG2 cells [1]", "value": 1000, "unit": "µM"},
      {"measurement": "viability at 48 h", "setting": "[2]; HepG2 cells, C1, C1, 48 h", "value": "101 ± 3.8", "unit": "%"},
      {"measurement": "viability at 48 h", "setting": "[2]; HepG2 cells, C2, C2, 48 h", "value": "97.1 ± 3.1", "unit": "%"},
      {"measurement": "viability at 48 h", "setting": "[2]; HepG2 cells, C3, C3, 48 h", "value": "94.6 ± 1.8", "unit": "%"},
      {"measurement": "viability at 48 h", "setting": "[2]; HepG2 cells, C4, C4, 48 h", "value": "46.4 ± 2", "unit": "%"},
      {"measurement": "viability at 48 h", "setting": "[2]; HepG2 cells, C5, C5, 48 h", "value": "23.2 ± 1.1", "unit": "%"},
      {"measurement": "cytotoxicity (CellTox Green)", "setting": "HepG2 cells [3]", "value": "low cytotoxicity"}
    ]},
    {"molecule": "O=c1cc(-c2ccccc2)oc2ccc3ccccc3c12", "note": "[β-naphthoflavone]", "values": [
      {"measurement": "EC50", "setting": "HepG2 cells [1]", "value": 100, "unit": "µM"},
      {"measurement": "EC1", "setting": "HepG2 cells [1]", "value": 0.1, "unit": "µM"},
      {"measurement": "EC5", "setting": "HepG2 cells [1]", "value": 1, "unit": "µM"},
      {"measurement": "EC15", "setting": "HepG2 cells [1]", "value": 10, "unit": "µM"},
      {"measurement": "EC85", "setting": "HepG2 cells [1]", "value": 700, "unit": "µM"},
      {"measurement": "viability at 48 h", "setting": "[2]; HepG2 cells, C1, C1, 48 h", "value": "103 ± 4.3", "unit": "%"},
      {"measurement": "viability at 48 h", "setting": "[2]; HepG2 cells, C2, C2, 48 h", "value": "114 ± 3.7", "unit": "%"},
      {"measurement": "viability at 48 h", "setting": "[2]; HepG2 cells, C3, C3, 48 h", "value": "104 ± 1.6", "unit": "%"},
      {"measurement": "viability at 48 h", "setting": "[2]; HepG2 cells, C4, C4, 48 h", "value": "34.5 ± 3.4", "unit": "%"},
      {"measurement": "viability at 48 h", "setting": "[2]; HepG2 cells, C5, C5, 48 h", "value": "15 ± 2.1", "unit": "%"},
      {"measurement": "cytotoxicity (CellTox Green)", "setting": "HepG2 cells [3]", "value": "low cytotoxicity"}
    ]}
  ]
}
